Where a SMILES comes first, the peptide text is derived from it. Bridges are numbered along the chain shown (N, C = ends). [ ]: non-standard residue; d: D form. The star is where a group is joined. Ileψ(thiazoline)Cys = CC[C@H](C)[C@H](N)C1=N[C@H](C(=O)*)CS1; dOrn = NCCC[C@@H](N)C(=O)O
Test system: Janthinobacterium lividum strains
Assay: Internal antibiotic resistance test (BD BBL Sensi-Disc zone of inhibition)
Format: cell-based
Details: all 5 strains; disc content per antibiotic
Experimental: One Janthinobacterium lividum colony of 3-day old grown in 50% BHI agar was mixed well in 1 ml of 1×PBS buffer, diluted 10× and 100×, respectively. 200 μl of diluted Janthinobacterium lividum cells were evenly plated onto R2A/BHI agar plates in triplicate in 150 mm petri dishes. Antibiotic discs (BD BBL Sensi-Disc antimicrobial susceptibility test discs) were dispensed using a Disc dispenser (BD BBL Sensi-Disc Designer Dispenser System, 12-Place). Plates were incubated for 2-3 days at room temperature and imaged at the end of incubation.
The sensitivity of Janthinobacterium lividum to antibiotics is reflected by a clear zone of inhibition of Janthinobacterium lividum cells surrounding the antibiotic discs. The zone of inhibition was measured using ImageJ and was transformed into cm for analysis.

Compound	sensitivity of Janthinobacterium lividum to antibiotic disc
CC[C@H]1OC(=O)[C@H](C)[C@@H](O[C@H]2C[C@@](C)(OC)[C@@H](O)[C@H](C)O2)[C@H](C)[C@@H](O[C@@H]2O[C@H](C)C[C@H](N(C)C)[C@H]2O)[C@](C)(O)C[C@@H](C)C(=O)[C@H](C)[C@@H](O)[C@]1(C)O [Erythromycin]	sensitive
O=C(O)c1cn(C2CC2)c2cc(N3CCNCC3)c(F)cc2c1=O [Ciprofloxacin]	sensitive
CC1(C)S[C@@H]2[C@H](NC(=O)[C@H](N)c3ccccc3)C(=O)N2[C@H]1C(=O)O [ampicillin]	sensitive
CN[C@H](CC(C)C)C(=O)N[C@H]1C(=O)N[C@@H](CC(N)=O)C(=O)N[C@H]2C(=O)N[C@H]3C(=O)N[C@H](C(=O)N[C@H](C(=O)O)c4cc(O)cc(O)c4-c4cc3ccc4O)[C@H](O)c3ccc(c(Cl)c3)Oc3cc2cc(c3O[C@@H]2O[C@H](CO)[C@@H](O)[C@H](O)[C@H]2O[C@H]2C[C@](C)(N)[C@H](O)[C@H](C)O2)Oc2ccc(cc2Cl)[C@H]1O [vancomycin]	sensitive
[H]/N=C(/N)N[C@H]1[C@H](O)[C@@H](O)[C@H](O[C@@H]2O[C@@H](C)[C@](O)(C=O)[C@H]2O[C@@H]2O[C@@H](CO)[C@H](O)[C@@H](O)[C@@H]2NC)[C@@H](N/C(N)=N\[H])[C@@H]1O [streptomycin]	sensitive
CC(=O)OCC1=C(C(=O)O)N2C(=O)[C@@H](NC(=O)Cc3cccs3)[C@H]2SC1 [cephalothin]	sensitive
penicillin	sensitive

Test system: E. Coli ATCC25922
Assay: not given
Details: cited from earlier work

Compound	MIC, CLSI QC ranges [µg/mL]
CO/N=C(\C(=O)N[C@@H]1C(=O)N2C(C(=O)O)=C(CSc3nc(=O)c(=O)[nH]n3C)CS[C@H]12)c1csc(N)n1 [Ceftriaxone]	0.03 to 0.12
NCC[C@H](O)C(=O)N[C@@H]1C[C@H](N)[C@@H](O[C@H]2O[C@H](CN)[C@@H](O)[C@H](O)[C@H]2O)[C@H](O)[C@H]1O[C@H]1O[C@H](CO)[C@@H](O)[C@H](N)[C@H]1O [Amikacin]	0.5 to 4

Test system: Janthinobacterium lividum strains
Assay: Antibiotic MIC tests, sensitivity summary
Format: cell-based
Details: not given
Experimental: The antibiotic resistance profile and MICs tests were performed using Janthinobacterium lividum grown from cultures purified and grown in vegitone LB broth.

Compound	sensitivity of Janthinobacterium lividum strains to antibiotic
CC[C@H](C)[C@H](N)C1=N[C@H](C(=O)N[C@@H](CC(C)C)C(=O)N[C@H](CCC(=O)O)C(=O)N[C@H](C(=O)N[C@H]2CCCCNC(=O)[C@H](CC(N)=O)NC(=O)[C@@H](CC(=O)O)NC(=O)[C@H](Cc3cnc[nH]3)NC(=O)[C@@H](Cc3ccccc3)NC(=O)[C@H]([C@@H](C)CC)NC(=O)[C@@H](CCCN)NC2=O)[C@@H](C)CC)CS1 [Bacitracin] ({Ileψ(thiazoline)Cys}-L[dE]IK[dOrn]I[dF]H[dD]N; lactam 4-C)	resistant

Test system: fungal or bacterial pathogens
Assay: not given
Format: cell-based
Details: not given

Compound	Concentration Range of Efficacy [mM]
O=[N+]([O-])O [Nitrate]	0.1 to 1
O=NO [Nitrite]	0.1 to 1

Same assay, conditions: components for enhancing function of human-derived Janthinobacterium lividum

Compound	Concentration Range of Efficacy [mM]
CO[C@@H]1O[C@H](C(=O)O)[C@@H](O)[C@H](O)[C@H]1O [β-Methyl-D-Glucuronic Acid]	1 to 5
C[C@H](N)C(=O)N[C@@H](CCC(=O)O)C(=O)O [Ala-Glu] (H-Ala-Glu-OH)	0.1 to 1
CO[C@@H]1O[C@H](CO)[C@@H](O)[C@H](O)[C@H]1O [β-Methyl-D-Glucoside]	2 to 20
N[C@@H](C(=O)O)[C@@H](O)[C@H](O)[C@H](O)CO [D-Glucosaminic Acid]	2 to 20
O=C[C@@H](O)[C@H](O[C@@H]1O[C@H](CO)[C@H](O)[C@H](O)[C@H]1O)[C@H](O)CO [3-0-β-D-Galactopyranosyl-D Arabinose]	1 to 5
O=P(O)(O)OCC(O)CO (racemic) [D,L-α-Glycerol Phosphate]	2 to 20
OC[C@H]1O[C@H](OCC2O[C@@H](O)[C@H](O)[C@@H](O)[C@@H]2O)[C@H](O)[C@@H](O)[C@H]1O (stereo partly drawn) [D-Melibiose]	2 to 20
OC[C@@H](O)[C@@H](O)CO [i-Erythritol]	1 to 5
Maltotriose	2 to 20
CO[C@@H]1O[C@H](CO)[C@@H](O)[C@H](O)[C@H]1O [β-Methyl-D-Galactoside]	1 to 5
CC(O)CO (centres unmarked) [1,2-Propanediol]	2 to 20
Nc1ncnc2c1ncn2C1CC(O)C(CO)O1 (centres unmarked) [2-Deoxy Adenosine]	2 to 20
COC1OC(CO)C(O)C(O)C1O [α-Methyl-D-Galactoside]	2 to 20
O=C(O)[C@H](O)[C@@H](O)C(=O)O [L-Tartaric acid]	1 to 5
O=CC[C@H](O)[C@H](O)CO [2-Deoxy-DRibose]	1 to 5
O=P(O)(O)O[C@H]1O[C@H](CO)[C@@H](O)[C@H](O)[C@H]1O [D-Glucose-1-Phosphate]	2 to 20
Pectin	1 to 5
OC[C@@H](O)[C@@H](O[C@H]1O[C@H](CO)[C@@H](O)[C@H](O)[C@H]1O)[C@H](O)[C@@H](O)CO [Maltitol]	1 to 5
CC(O)C(N)=O (racemic) [D,L-Lactamide]	0.1 to 1
Laminarin	1 to 5
OC[C@H]1O[C@@](CO)(O[C@H]2O[C@H](CO)[C@@H](O)[C@H](O)[C@H]2O)[C@@H](O[C@H]2O[C@H](CO)[C@@H](O)[C@H](O)[C@H]2O)[C@@H]1O [D-Melezitose]	1 to 5
OC[C@H](O)C(O)[C@@H](O)CO [L-Arabitol]	1 to 5

Compound	Concentration Range of Efficacy [mM]
OC[C@H]1O[C@@H]2O[C@H]3[C@H](O)[C@@H](O)[C@@H](O[C@H]4[C@H](O)[C@@H](O)[C@@H](O[C@H]5[C@H](O)[C@@H](O)[C@@H](O[C@H]6[C@H](O)[C@@H](O)[C@@H](O[C@H]7[C@H](O)[C@@H](O)[C@@H](O[C@H]1[C@H](O)[C@H]2O)O[C@@H]7CO)O[C@@H]6CO)O[C@@H]5CO)O[C@@H]4CO)O[C@@H]3CO [α-Cyclodextrin]	1 to 5
OC[C@@H](O)[C@H](O)[C@H](O)[C@@H](O)CO [Dulcitol]	2 to 20
OC[C@H]1O[C@H](OC[C@H]2O[C@H](OC[C@H]3O[C@H](O[C@]4(CO)O[C@H](CO)[C@@H](O)[C@@H]4O)[C@H](O)[C@@H](O)[C@@H]3O)[C@H](O)[C@@H](O)[C@H]2O)[C@H](O)[C@@H](O)[C@H]1O [Stachyose]	1 to 5
O=C(O)[C@H]1OC(O)[C@H](O)[C@@H](O)[C@@H]1O (stereo partly drawn) [D-Glucoronic Acid]	2 to 20
dextrin	1 to 5
NC(N)=O [Urea]	0.1 to 1
O=C1CCC(C(=O)O)O1 (stereo not drawn) [α-Hydroxy Glutaric Acid-g-Lactone]	2 to 20
OC[C@H]1O[C@H](OC[C@H]2OC(O)(CO)[C@@H](O)[C@@H]2O)[C@H](O)[C@@H](O)[C@@H]1O (some centres unmarked) [Palatinose]	1 to 5
OC[C@H]1O[C@@H](O[C@H]2[C@H](O)[C@@H](O)[C@H](O)O[C@@H]2CO)[C@H](O)[C@@H](O)[C@@H]1O [D-Cellobiose]	2 to 20
Chondroitin Sulfate C	1 to 5
Glycogen	1 to 5
OC[C@H]1O[C@@H]2O[C@H]3[C@H](O)[C@@H](O)[C@@H](O[C@H]4[C@H](O)[C@@H](O)[C@@H](O[C@H]5[C@H](O)[C@@H](O)[C@@H](O[C@H]6[C@H](O)[C@@H](O)[C@@H](O[C@H]7[C@H](O)[C@@H](O)[C@@H](O[C@H]8[C@H](O)[C@@H](O)[C@@H](O[C@H]1[C@H](O)[C@H]2O)O[C@@H]8CO)O[C@@H]7CO)O[C@@H]6CO)O[C@@H]5CO)O[C@@H]4CO)O[C@@H]3CO [β-Cyclodextrin]	1 to 5
CO[C@H]1O[C@H](CO)[C@@H](O)[C@H](O)[C@H]1O [α-Methyl-D-Glucoside]	1 to 5
COC1OCC(O)C(O)C1O [β-Methyl-D-Xyloside]	1 to 5
OC[C@@H](O)C(O)[C@H](O)CO [D-Arabitol]	1 to 5
Inulin	1 to 5
O=C(O)[C@@H](O)[C@H](O)C(=O)O [D-Tartaric acid]	1 to 5
COC1OC(CO)C(O)C(O)C1O [α-Methyl-D-Mannoside]	1 to 5
O=C(CO)[C@@H](O[C@H]1O[C@H](CO)[C@@H](O)[C@H](O)[C@H]1O)[C@H](O)[C@H](O)CO [Turanose]	1 to 5
OC[C@@]12OC[C@@H](O1)[C@@H](O)[C@@H](O)[C@@H]2O [Sedoheptulosan]	1 to 5
Mannan	1 to 5
OC[C@H]1O[C@@H]2O[C@H]3[C@H](O)[C@@H](O)[C@@H](O[C@H]4[C@H](O)[C@@H](O)[C@@H](O[C@H]5[C@H](O)[C@@H](O)[C@@H](O[C@H]6[C@H](O)[C@@H](O)[C@@H](O[C@H]7[C@H](O)[C@@H](O)[C@@H](O[C@H]8[C@H](O)[C@@H](O)[C@@H](O[C@H]9[C@H](O)[C@@H](O)[C@@H](O[C@H]1[C@H](O)[C@H]2O)O[C@@H]9CO)O[C@@H]8CO)O[C@@H]7CO)O[C@@H]6CO)O[C@@H]5CO)O[C@@H]4CO)O[C@@H]3CO [g-Cyclodextrin]	1 to 5

From US20220160617A1, “COMPOSITIONS AND METHODS FOR IMPROVING SKIN HEALTH AND FOR THE TREATMENT AND PREVENTION OF DISEASES, DISORDERS AND CONDITIONS ASSOCIATED WITH PATHOGENIC MICROBES” (DermBiont, Inc., priority 2019, published 2022)
